Biological target: Serine/threonine-protein kinase B-raf [V600E] (Homo sapiens, UniProt P15056, V600E)
Test: Raf/Mek Amplified Luminescence Proximity Homogeneous Assay
Conditions: pH 7.5
Excerpt: Raf/Mek amplified luminescence proximity homogeneous assay.

Chain of Serine/threonine-protein kinase B-raf [V600E] (P15056 2-766 V600E limits assumed): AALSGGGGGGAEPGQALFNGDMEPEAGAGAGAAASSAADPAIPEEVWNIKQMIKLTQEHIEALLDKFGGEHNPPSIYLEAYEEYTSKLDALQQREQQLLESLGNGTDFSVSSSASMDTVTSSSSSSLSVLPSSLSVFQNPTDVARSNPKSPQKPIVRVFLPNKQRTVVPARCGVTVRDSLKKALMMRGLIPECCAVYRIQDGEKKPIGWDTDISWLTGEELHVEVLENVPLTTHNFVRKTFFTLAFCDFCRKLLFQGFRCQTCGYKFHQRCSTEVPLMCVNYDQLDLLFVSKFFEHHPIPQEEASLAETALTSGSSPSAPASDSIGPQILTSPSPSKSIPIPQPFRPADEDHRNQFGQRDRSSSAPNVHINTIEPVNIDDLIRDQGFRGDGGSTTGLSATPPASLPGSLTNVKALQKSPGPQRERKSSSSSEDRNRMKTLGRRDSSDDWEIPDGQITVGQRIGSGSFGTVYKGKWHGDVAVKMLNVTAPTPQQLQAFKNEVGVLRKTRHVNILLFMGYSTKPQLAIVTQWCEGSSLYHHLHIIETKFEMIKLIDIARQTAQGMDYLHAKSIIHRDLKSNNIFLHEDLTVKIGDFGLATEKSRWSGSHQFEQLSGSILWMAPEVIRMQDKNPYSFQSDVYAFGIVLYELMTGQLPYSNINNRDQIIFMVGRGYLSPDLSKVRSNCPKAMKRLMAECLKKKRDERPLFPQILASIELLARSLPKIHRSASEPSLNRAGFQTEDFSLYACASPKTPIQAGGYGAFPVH

IC50: 235 nM
Structure (SMILES): COC(=O)N[C@@H](C)CNc1nccc(-c2nc(C(C)(C)C)[nH]c2-c2cc(Cl)cc(NS(=O)(=O)C(F)(F)F)c2)n1 [US8563553, 52]

From BindingDB's records for patent US8563553 (Novartis, 2013)
